In patent publication US5235045A, “Non-azo naphthalimide dyes” (priority 1992, dated 1993):
Read-outs that look alike come from different tables or passages of the source.

Key:
[1] = Bleaching kinetics in synthetic vesicles; format: physicochemical; conditions: 150-W xenon arc lamp, 20° C.
Description: The dye was incorporated into synthetic vesicles as described above. The vesicles were irradiated with a 150-W Oriel xenon arc lamp at a distance of 4 cm from the lens at a thermostated temperature of 20° C. The change in fluorescence intensity with time was determined above, and the results plotted as a standard first order plot.

BHV-1 antigen = test: Surface antigen assays of BHV-1 on FBL cells; format: cell-based, Bovine Herpes Virus Type I (BHV-1)
Description: Surface Antigen Assays The BHV-1 virus prepared as above (20480 TCID50) was (i) held as control; (ii) treated with dye (concentrations from 7.5 to 250 ng/ml) in cell culture medium; or (iii) treated with Compound VII and light-treated in cell culture medium. All virus was plated in 96-well flat bottom plates for 24 hours in 5x replicates on FBL cells. At that time the wells were examined for CPE, scored, and 2x wells were fixed in acetone and paraformaldehyde for examination of intracellular and surface BHV-1 antigen, respectively. The cells were treated with 50 μl of an anti-BHV-1 monoclonal antibody (gift of Dr. J. Collins, Diagnostic Laboratory, Colorado State University, School of Veterinary Medicine) used as a common diagnostic reagent, for 30 minutes at room temperature. The cells were further stained with either FITC-labeled anti-mouse or biotinylated anti-mouse and avidin rPE. The samples were placed on slides and read by fluorescent microscopy using a 495 nm excitor filter and 525 long pass emission filter on a Leitz epifluorescent microscope.

[2] = system: Human Herpes Simplex Virus Type I; test: Photoinduced inactivation of HSV-I, plaque assay (Table 11); format: cell-based; conditions: 420±5 nm, 20J/cm^2
[3] = system: Herpes simplex virus type 1; test: Effect of prior activation of Ed6Br with 420 nm light on HSV-1 (plaque assay); format: cell-based, MacIntyre strain; conditions: for log reduction at 25 µM / log reduction at 100 µM: Human alphaherpesvirus 1, 24 h, read-out: Log10 Reduction
H9 cells = test: Effects on H9 cells of Ed6Br with prior activation by 420 nm light (Trypan Blue); format: cell-based; conditions: Homo sapiens, H9, 24 h, read-out: % Viable Cells
cytochrome c = test: Effect of irradiation on membrane-bound protein function: oxidation of vesicle-bound cytochrome c by CO(phen)3^3+; format: biochemical; conditions: 1×10^-7 M dye, irradiated; pH 7.5, 20° C.; without dye 25±1
Description: Cytochrome C, a mitochondrial protein which is peripherally associated with membranes was studied as a model for the effect of photomodification of the membrane lipids on protein function. At pH 7.5 and 20° C., the rate of oxidation of vesicle-bound cytochrome c (7×10^-6 M) by CO(phen)3^3 + was 25±1 s^-1. Upon addition of Compound VII (1×10^-7 M) to the vesicles containing reduced cytochrome c, and subsequent irradiation as described above, the rate constant for oxidation of the bound cytochrome c under the same conditions was reduced to 2±1 s^-1.

[4] = photochemically attenuated virus
[5] = virus and dye, dark control, 7.5 to 250 ng/ml

With `CCCCCCNc1c(Br)cc2c3c(cccc13)C(=O)N(CCCCCC)C2=O` [Compound VII, 3-bromo-4-(hexyl)amino-N-hexyl-1,8-naphthalimide] the “rate constant for bleaching” value ([1]; 0 mol % cholesterol) was 1.08 ± 0.08 × 10^-3 s^-1, the “rate constant for bleaching” value ([1]; 15 mol % cholesterol) was 2.00 ± 0.13 × 10^-3 s^-1 and the “rate constant for bleaching” value ([1]; 30 mol % cholesterol) was 3.08 ± 0.20 × 10^-3 s^-1. The “rate constant for bleaching” value ([1]; 45 mol % cholesterol) was 3.1 ± 0.9 × 10^-3 s^-1, the internal viral antigen (BHV-1 antigen; [4]) was “internal antigen was observed at all concentrations of Compound VII which showed CPE” and the surface viral antigen (BHV-1 antigen; [4]) was “Surface antigen was observed at all concentrations”. The internal viral antigen (BHV-1 antigen; [5]) was “Internal antigen was observed and correlated with CPE levels”, the surface viral antigen (BHV-1 antigen; [5]) was “Much surface viral antigen was detected at all dye concentrations” and the “Infectivity, Average” value ([2]; 0.078 μM) was 37.5 PFU/ml. The “Infectivity, first PFU/ml column” value ([2]; 0.078 μM) was 45 PFU/ml, the “Infectivity, second PFU/ml column” value ([2]; 0.078 μM) was 30 PFU/ml and the “Infectivity, Average” value ([2]; 0.156 μM) was 17.5 PFU/ml. The “Infectivity, first PFU/ml column” value ([2]; 0.156 μM) was 20 PFU/ml, the “Infectivity, second PFU/ml column” value ([2]; 0.156 μM) was 15 PFU/ml and the “Infectivity, Average” value ([2]; 0.312 μM) was 7.5 PFU/ml. For the same compound, the “Infectivity, first PFU/ml column” value ([2]; 0.312 μM) was 10 PFU/ml, the “Infectivity, second PFU/ml column” value ([2]; 0.312 μM) was 5 PFU/ml and the “Infectivity, Average” value ([2]; 0.625 μM) was 0 PFU/ml. The “Infectivity, first PFU/ml column” value ([2]; 0.625 μM) was 0 PFU/ml, the “Infectivity, Average” value ([2]; 1.25 μM) was 0 PFU/ml and the “Infectivity, first PFU/ml column” value ([2]; 1.25 μM) was 0 PFU/ml. The “Infectivity, second PFU/ml column” value ([2]; 1.25 μM) was 0 PFU/ml, the “Infectivity, Average” value ([2]; 2.5 μM) was 0 PFU/ml and the “Infectivity, first PFU/ml column” value ([2]; 2.5 μM) was 0 PFU/ml. For the same compound, the “Infectivity, second PFU/ml column” value ([2]; 2.5 μM) was 0 PFU/ml, the “Infectivity, Average” value ([2]; 5 μM) was 0 PFU/ml and the “Infectivity, first PFU/ml column” value ([2]; 5 μM) was 0 PFU/ml. The “Infectivity, second PFU/ml column” value ([2]; 5 μM) was 0 PFU/ml, the “Infectivity, Average” value ([2]; 10 μM) was 0 PFU/ml and the “Infectivity, first PFU/ml column” value ([2]; 10 μM) was 0 PFU/ml. The “Infectivity, second PFU/ml column” value ([2]; 10 μM) was 0 PFU/ml, the activity at 0.078 µM ([2]; Human alphaherpesvirus 1, light or radiation study, 0.078 μM, read-out: % Survival) was 0.006% and the log reduction at 0.078 µM ([2]; Human alphaherpesvirus 1, light or radiation study, 0.078 μM, read-out: log10 reduction) was 4.2. For the same compound, the activity at 0.156 µM ([2]; Human alphaherpesvirus 1, light or radiation study, 0.156 μM, read-out: % Survival) was 0.0028%, the log reduction at 0.156 µM ([2]; Human alphaherpesvirus 1, light or radiation study, 0.156 μM, read-out: log10 reduction) was 4.5 and the activity at 0.312 µM ([2]; Human alphaherpesvirus 1, light or radiation study, 0.312 μM, read-out: % Survival) was 0.0012%. For the same compound, the log reduction at 0.312 µM ([2]; Human alphaherpesvirus 1, light or radiation study, 0.312 μM, read-out: log10 reduction) was 4.9, the activity at 0.625 µM ([2]; Human alphaherpesvirus 1, light or radiation study, 0.625 μM, read-out: % Survival) was under 0.0002% and the log reduction at 0.625 µM ([2]; Human alphaherpesvirus 1, light or radiation study, 0.625 μM, read-out: log10 reduction) was over 5.7. It also gave an activity at 1.25 µM ([2]; Human alphaherpesvirus 1, light or radiation study, 1.25 μM, read-out: % Survival) of under 0.0002%, a log reduction at 1.25 µM ([2]; Human alphaherpesvirus 1, light or radiation study, 1.25 μM, read-out: log10 reduction) of over 5.7 and an activity at 2.5 µM ([2]; Human alphaherpesvirus 1, light or radiation study, 2.5 μM, read-out: % Survival) of under 0.0002%. The log reduction at 2.5 µM ([2]; Human alphaherpesvirus 1, light or radiation study, 2.5 μM, read-out: log10 reduction) was over 5.7, the activity at 5 µM ([2]; Human alphaherpesvirus 1, light or radiation study, 5 μM, read-out: % Survival) was under 0.0002% and the log reduction at 5 µM ([2]; Human alphaherpesvirus 1, light or radiation study, 5 μM, read-out: log10 reduction) was over 5.7. The activity at 10 µM ([2]; Human alphaherpesvirus 1, light or radiation study, 10 μM, read-out: % Survival) was under 0.0002%, the log reduction at 10 µM ([2]; Human alphaherpesvirus 1, light or radiation study, 10 μM, read-out: log10 reduction) was over 5.7 and the PFU/ml ([3]; 25 μM, prior activation +) was 8.4 × 10^3 PFU/ml. The PFU/ml ([3]; 25 μM, prior activation -) was 4.5 × 10^4 PFU/ml, the PFU/ml ([3]; 100 μM, prior activation +) was 3.0 × 10^1 PFU/ml and the PFU/ml ([3]; 100 μM, prior activation -) was 9.0 × 10^3 PFU/ml. The log reduction at 25 µM ([3]; 25 μM, prior activation +) was 1.51, the log reduction at 25 µM ([3]; 25 μM, prior activation -) was 0.78 and the log reduction at 100 µM ([3]; 100 μM, prior activation +) was 3.95. The log reduction at 100 µM ([3]; 100 μM, prior activation -) was 1.48, the “kill of HSV-1” value ([3]; as low as 100 mM, activated prior to addition to viral suspension) was over 99.99% and the viability at 100 µM (H9 cells; no previous light activation) was 28%. The viability at 100 µM (H9 cells; previous light activation) was 0% and the “rate constant for oxidation of bound cytochrome c” value (cytochrome c) was 2 ± 1 s⁻¹.
